{
  "source": "ChEMBL document CHEMBL1156335",
  "about": "“Inhibition studies of a beta-carbonic anhydrase from Brucella suis with a series of water soluble glycosyl sulfanilamides” (Bioorg Med Chem Lett, 2010)",
  "target": "T1, Histidinol dehydrogenase (Brucella suis biovar 1 (strain 1330)) (UniProt Q8G2R2)",
  "T1 sequence (whole entry)": "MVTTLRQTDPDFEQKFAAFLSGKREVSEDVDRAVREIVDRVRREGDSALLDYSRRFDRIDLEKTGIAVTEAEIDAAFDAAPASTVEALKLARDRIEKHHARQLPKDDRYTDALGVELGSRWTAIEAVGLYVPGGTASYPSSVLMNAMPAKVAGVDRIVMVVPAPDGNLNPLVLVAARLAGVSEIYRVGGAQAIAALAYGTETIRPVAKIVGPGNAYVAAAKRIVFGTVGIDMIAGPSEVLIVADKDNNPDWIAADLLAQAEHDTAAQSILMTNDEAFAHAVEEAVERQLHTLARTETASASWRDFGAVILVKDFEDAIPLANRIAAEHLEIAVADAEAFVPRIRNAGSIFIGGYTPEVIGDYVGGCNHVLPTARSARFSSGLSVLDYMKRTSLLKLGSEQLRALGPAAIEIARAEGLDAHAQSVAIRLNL",
  "assay": "Antibacterial activity against Brucella suis at 10 uM after 8 to 11 days",
  "assay_type": "functional",
  "note": "Calls of active or inactive are those of the source. No cut-off for these calls is given here.",
  "data": [
    {"smiles": "C[C@H]1O[C@@H](Nc2ccc(S(N)(=O)=O)cc2)[C@@H](O)[C@@H](O)[C@@H]1O", "values": [
      {"measurement": "Activity", "result": "Active"}
    ]}
  ]
}
